“And” between values parts separate entries of the source, which are not always exact repeats. Equal entries are not always repeated.
Columns and labels:
Assay in all cases: radiometric filter-binding kinase assay, Kinase HotSpot
Conditions in all cases: compound 0.5 µM; ATP 10 µM
[1] = biological target: ROS1 (human) (UniProt P08922)
[2] = biological target: ABL1 (human) (UniProt P00519)
[3] = biological target: CAMKK2 (human) (UniProt Q96RR4)
[4] = biological target: NTRK3 (human) (UniProt Q16288)
[5] = biological target: MAP2K1 (human) (UniProt Q02750)
[6] = biological target: CAMK2G (human) (UniProt Q13555)
[7] = biological target: NEK3 (human) (UniProt P51956)
[8] = biological target: MAP3K3 (human) (UniProt Q99759)
[9] = biological target: TNK2 (human) (UniProt Q07912)
[10] = biological target: BMX (human) (UniProt P51813)
[11] = biological target: TXK (human) (UniProt P42681)
[12] = biological target: CSNK2A1 (human) (UniProt P68400)
[13] = biological target: LYN (human) (UniProt P07948)
[14] = biological target: MARK3 (human) (UniProt P27448)
[15] = biological target: TAOK2 (human) (UniProt Q9UL54)
[16] = biological target: MAP3K8 (human) (UniProt P41279)
[17] = biological target: DYRK1B (human) (UniProt Q9Y463)
[18] = biological target: CSK (human) (UniProt P41240)
[19] = biological target: PLK2 (human) (UniProt Q9NYY3)
[20] = biological target: MAP3K10 (human) (UniProt Q02779)
[21] = biological target: RIPK2 (human) (UniProt O43353)
[22] = biological target: ERBB4 (human) (UniProt Q15303)
[23] = biological target: EPHA1 (human) (UniProt P21709)
[24] = biological target: SRPK2 (human) (UniProt P78362)
[25] = biological target: PDGFRA (human) (UniProt P16234)
[26] = biological target: PNCK (human) (UniProt Q6P2M8)
[27] = biological target: PRKD1 (human) (UniProt Q15139)
[28] = biological target: DYRK3 (human) (UniProt O43781)
[29] = biological target: IKBKB (human) (UniProt O14920)
[30] = biological target: ACVR1B (human) (UniProt P36896)
[31] = biological target: PRKCG (human) (UniProt P05129)
[32] = biological target: DAPK3 (human) (UniProt O43293)
[33] = biological target: GSG2 (human) (UniProt Q8TF76)
[34] = biological target: TEK (human) (UniProt Q02763)
[35] = biological target: PBK (human) (UniProt Q96KB5)
[36] = biological target: RPS6KA4 KD2 (human) (UniProt O75676)
[37] = biological target: RET (human) (UniProt P07949)
[38] = biological target: CDK7 CCNH MNAT1 (human) (UniProt P50613+P51948+P51946)
[39] = biological target: MAP3K9 (human) (UniProt P80192)
[40] = biological target: ADRBK2 (human) (UniProt P35626)
[41] = biological target: CAMK1G (human) (UniProt Q96NX5)
[42] = biological target: DDR2 (human) (UniProt Q16832)

Sequence of IKBKB (human) (O14920 whole entry, looked up): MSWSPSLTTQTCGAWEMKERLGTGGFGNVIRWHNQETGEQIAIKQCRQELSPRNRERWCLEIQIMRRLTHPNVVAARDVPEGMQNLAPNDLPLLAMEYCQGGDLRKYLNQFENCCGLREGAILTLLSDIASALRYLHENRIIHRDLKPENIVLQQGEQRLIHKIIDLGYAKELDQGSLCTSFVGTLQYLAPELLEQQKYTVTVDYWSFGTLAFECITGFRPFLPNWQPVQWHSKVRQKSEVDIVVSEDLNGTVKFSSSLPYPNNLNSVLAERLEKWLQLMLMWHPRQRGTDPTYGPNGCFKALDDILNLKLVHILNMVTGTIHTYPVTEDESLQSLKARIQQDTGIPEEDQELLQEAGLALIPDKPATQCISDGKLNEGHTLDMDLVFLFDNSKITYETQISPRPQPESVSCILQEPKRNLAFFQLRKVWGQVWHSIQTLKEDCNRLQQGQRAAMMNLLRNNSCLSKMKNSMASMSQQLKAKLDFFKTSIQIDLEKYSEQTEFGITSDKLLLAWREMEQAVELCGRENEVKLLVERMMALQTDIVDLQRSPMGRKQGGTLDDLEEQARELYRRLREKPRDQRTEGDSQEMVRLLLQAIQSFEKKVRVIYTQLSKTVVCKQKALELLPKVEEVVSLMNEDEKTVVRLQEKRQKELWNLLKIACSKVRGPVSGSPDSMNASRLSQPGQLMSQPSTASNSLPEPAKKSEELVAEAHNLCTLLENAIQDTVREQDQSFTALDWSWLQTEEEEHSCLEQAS
Sequence of ABL1 (human) (P00519 whole entry, looked up): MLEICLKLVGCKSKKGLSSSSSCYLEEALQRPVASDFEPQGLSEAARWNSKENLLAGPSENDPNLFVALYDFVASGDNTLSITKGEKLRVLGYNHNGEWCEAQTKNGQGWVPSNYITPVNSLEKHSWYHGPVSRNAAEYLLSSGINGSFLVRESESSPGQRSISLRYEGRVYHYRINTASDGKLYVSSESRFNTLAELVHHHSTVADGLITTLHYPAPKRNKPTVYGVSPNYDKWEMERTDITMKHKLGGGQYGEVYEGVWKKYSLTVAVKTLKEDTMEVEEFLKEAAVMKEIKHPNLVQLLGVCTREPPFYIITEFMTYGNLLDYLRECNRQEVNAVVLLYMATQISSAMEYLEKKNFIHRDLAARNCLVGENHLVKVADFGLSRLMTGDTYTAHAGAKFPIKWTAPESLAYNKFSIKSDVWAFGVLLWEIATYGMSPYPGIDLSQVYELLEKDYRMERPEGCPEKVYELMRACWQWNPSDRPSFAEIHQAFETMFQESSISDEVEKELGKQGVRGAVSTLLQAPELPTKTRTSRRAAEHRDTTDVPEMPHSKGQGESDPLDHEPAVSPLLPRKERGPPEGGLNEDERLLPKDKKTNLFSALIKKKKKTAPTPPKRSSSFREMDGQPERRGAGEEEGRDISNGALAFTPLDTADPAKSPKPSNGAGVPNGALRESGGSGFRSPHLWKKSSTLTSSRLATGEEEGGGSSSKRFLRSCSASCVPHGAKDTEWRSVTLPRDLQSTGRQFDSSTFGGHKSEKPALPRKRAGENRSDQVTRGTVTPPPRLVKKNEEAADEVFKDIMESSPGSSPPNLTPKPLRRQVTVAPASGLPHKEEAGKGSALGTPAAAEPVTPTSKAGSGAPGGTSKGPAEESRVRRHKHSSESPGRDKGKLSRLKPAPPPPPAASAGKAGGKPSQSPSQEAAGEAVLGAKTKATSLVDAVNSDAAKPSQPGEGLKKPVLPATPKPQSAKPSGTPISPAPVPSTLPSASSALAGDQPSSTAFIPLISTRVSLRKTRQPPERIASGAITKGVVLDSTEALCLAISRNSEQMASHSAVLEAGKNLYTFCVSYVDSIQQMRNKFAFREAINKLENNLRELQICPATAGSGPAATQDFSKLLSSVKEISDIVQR
Sequence of EPHA1 (human) (P21709 whole entry, looked up): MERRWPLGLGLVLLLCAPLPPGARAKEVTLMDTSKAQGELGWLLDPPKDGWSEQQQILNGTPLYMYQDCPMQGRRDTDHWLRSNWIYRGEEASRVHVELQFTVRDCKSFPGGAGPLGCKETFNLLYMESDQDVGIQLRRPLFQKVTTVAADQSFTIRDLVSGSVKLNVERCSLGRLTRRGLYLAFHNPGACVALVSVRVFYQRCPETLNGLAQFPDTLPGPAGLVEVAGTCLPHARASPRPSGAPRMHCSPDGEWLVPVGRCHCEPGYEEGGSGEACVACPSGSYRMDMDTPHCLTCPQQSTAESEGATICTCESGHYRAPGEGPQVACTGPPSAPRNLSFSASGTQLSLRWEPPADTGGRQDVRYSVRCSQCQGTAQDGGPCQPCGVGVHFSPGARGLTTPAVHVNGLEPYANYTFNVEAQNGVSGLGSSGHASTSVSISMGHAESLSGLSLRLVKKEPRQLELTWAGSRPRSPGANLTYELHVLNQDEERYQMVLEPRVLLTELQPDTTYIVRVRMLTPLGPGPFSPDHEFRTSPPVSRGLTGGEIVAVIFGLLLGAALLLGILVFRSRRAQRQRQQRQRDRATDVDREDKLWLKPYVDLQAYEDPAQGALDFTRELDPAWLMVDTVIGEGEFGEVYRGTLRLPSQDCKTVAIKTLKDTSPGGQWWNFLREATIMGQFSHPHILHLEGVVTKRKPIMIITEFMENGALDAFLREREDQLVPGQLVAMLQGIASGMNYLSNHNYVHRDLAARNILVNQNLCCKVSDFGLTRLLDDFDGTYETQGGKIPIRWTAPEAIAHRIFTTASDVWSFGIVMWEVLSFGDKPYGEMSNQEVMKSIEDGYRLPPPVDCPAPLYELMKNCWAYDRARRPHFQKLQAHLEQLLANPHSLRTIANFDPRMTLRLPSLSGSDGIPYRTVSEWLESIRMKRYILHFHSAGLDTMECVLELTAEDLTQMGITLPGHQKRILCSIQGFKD
Sequence of MAP2K1 (human) (Q02750 whole entry, looked up): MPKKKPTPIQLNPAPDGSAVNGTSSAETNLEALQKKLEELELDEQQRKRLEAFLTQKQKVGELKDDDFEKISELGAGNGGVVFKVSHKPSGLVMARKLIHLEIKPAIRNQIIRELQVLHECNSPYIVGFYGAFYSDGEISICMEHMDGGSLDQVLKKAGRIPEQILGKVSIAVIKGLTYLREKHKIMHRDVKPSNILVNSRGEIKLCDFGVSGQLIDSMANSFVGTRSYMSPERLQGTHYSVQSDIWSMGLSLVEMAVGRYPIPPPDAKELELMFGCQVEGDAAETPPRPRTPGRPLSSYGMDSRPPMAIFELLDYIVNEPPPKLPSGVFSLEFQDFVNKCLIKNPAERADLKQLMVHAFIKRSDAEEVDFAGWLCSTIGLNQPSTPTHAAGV
Sequence of DYRK1B (human) (Q9Y463 whole entry, looked up): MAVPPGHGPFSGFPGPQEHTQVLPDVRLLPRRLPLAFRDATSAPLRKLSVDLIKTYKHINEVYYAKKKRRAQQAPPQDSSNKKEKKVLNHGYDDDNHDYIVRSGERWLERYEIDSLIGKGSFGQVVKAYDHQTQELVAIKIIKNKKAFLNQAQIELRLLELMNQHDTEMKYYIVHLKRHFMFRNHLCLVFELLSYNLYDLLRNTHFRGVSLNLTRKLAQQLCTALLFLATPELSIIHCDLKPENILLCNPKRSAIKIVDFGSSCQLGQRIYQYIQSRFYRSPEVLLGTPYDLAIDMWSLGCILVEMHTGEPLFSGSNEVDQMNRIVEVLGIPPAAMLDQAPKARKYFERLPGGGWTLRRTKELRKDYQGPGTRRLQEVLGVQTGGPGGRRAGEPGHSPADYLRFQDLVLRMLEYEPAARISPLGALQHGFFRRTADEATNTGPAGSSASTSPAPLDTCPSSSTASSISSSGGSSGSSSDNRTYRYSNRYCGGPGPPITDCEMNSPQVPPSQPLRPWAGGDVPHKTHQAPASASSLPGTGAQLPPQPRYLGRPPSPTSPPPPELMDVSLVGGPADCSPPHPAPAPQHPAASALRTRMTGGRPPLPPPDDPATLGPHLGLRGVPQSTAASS
Sequence of LYN (human) (P07948 whole entry, looked up): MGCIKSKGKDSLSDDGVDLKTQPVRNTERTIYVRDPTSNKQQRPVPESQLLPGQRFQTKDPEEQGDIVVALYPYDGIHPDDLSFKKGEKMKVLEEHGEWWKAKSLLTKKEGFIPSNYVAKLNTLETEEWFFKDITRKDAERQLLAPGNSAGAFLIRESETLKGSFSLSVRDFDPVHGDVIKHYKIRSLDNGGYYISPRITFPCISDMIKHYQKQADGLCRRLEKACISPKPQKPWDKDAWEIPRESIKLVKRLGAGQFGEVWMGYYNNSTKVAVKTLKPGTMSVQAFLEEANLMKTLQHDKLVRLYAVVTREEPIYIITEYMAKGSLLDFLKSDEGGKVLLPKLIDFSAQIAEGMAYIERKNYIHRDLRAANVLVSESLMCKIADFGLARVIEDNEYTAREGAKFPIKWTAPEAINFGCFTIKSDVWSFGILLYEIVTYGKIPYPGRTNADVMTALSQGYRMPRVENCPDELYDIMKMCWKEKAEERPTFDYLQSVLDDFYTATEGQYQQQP
Sequence of PBK (human) (Q96KB5 whole entry, looked up): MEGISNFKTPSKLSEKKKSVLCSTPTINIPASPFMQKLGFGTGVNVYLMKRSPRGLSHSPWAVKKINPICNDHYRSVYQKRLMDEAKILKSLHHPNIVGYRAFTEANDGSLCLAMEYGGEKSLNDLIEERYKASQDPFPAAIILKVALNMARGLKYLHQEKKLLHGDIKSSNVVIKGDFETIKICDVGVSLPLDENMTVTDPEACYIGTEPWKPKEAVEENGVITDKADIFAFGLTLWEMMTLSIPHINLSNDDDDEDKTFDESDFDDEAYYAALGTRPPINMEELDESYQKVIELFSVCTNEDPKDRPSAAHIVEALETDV

`Ic1cccc(CSc2nnc(-c3ccncc3)o2)c1` showed a residual activity [1] of 99.3%, a residual activity [2] of 107% and a residual activity [3] of 85.1%. It also gave a residual activity [4] of 104%, a residual activity [5] of 95.4% and a residual activity [6] of 96.8%. For the same compound, the residual activity [7] was 86.9%, the residual activity [8] was 89.6% and the residual activity [9] was 101%. It also gave a residual activity [10] of 86.6%, a residual activity [11] of 96.8% and a residual activity [12] of 97.3%. For the same compound, the residual activity [13] was 103% and 99.6%, the residual activity [14] was 124% and the residual activity [15] was 105%. For the same compound, the residual activity [16] was 96.1%, the residual activity [17] was 96.7% and the residual activity [18] was 101%. For the same compound, the residual activity [19] was 101%, the residual activity [20] was 102% and the residual activity [21] was 86.3%. The residual activity [22] was 96.4%, the residual activity [23] was 97% and the residual activity [24] was 97.4%. It also gave a residual activity [25] of 90.1%, a residual activity [26] of 101% and a residual activity [27] of 97.6%. The residual activity [28] was 108%, the residual activity [29] was 89.3% and the residual activity [30] was 102%. For the same compound, the residual activity [31] was 98.7%, the residual activity [32] was 107% and the residual activity [33] was 95.9%. The residual activity [34] was 92.6%, the residual activity [35] was 62.7% and the residual activity [36] was 92.1%. For the same compound, the residual activity [37] was 103%, the residual activity [38] was 96.7% and the residual activity [39] was 108%. For the same compound, the residual activity [40] was 103%, the residual activity [41] was 95.9% and the residual activity [42] was 103%.

For `N#C/C(=C\c1ccc(O)c(O)c1)C(=O)NCc1ccccc1`, the residual activity [1] was 101%, the residual activity [2] was 100% and the residual activity [3] was 97.4%. The residual activity [4] was 98.8%, the residual activity [5] was 94% and the residual activity [6] was 94.1%. The residual activity [7] was 95.1%, the residual activity [8] was 102% and the residual activity [9] was 98.3%. For the same compound, the residual activity [10] was 88.8%, the residual activity [11] was 104% and the residual activity [12] was 86.6%. For the same compound, the residual activity [13] was 105% and 99.8%, the residual activity [14] was 97.5% and the residual activity [15] was 95.7%. It also gave a residual activity [16] of 98.1%, a residual activity [17] of 106% and a residual activity [18] of 101%. For the same compound, the residual activity [19] was 105%, the residual activity [20] was 100% and the residual activity [21] was 101%. For the same compound, the residual activity [22] was 80.9%, the residual activity [23] was 99.4% and the residual activity [24] was 96.6%. It also gave a residual activity [25] of 110%, a residual activity [26] of 97.1% and a residual activity [27] of 92.5%. It also gave a residual activity [28] of 99.6%, a residual activity [29] of 103% and a residual activity [30] of 98%. It also gave a residual activity [31] of 97.2%, a residual activity [32] of 86.5% and a residual activity [33] of 104%. The residual activity [34] was 95.1%, the residual activity [35] was 84.2% and the residual activity [36] was 94.2%. The residual activity [37] was 108%, the residual activity [38] was 120% and the residual activity [39] was 95.5%. It also gave a residual activity [40] of 91.4%, a residual activity [41] of 98.7% and a residual activity [42] of 97.2%.

With `O=C1Nc2ccc(Br)cc2/C1=C\c1cc2c([nH]1)CCCC2` the residual activity [1] was 98.6%, the residual activity [2] was 91.8% and the residual activity [3] was 68.1%. It also gave a residual activity [4] of 11.9%, a residual activity [5] of 84.8% and a residual activity [6] of 92.4%. It also gave a residual activity [7] of 86.7%, a residual activity [8] of 88.6% and a residual activity [9] of 92.8%. For the same compound, the residual activity [10] was 89.9%, the residual activity [11] was 97.3% and the residual activity [12] was 96.1%. For the same compound, the residual activity [13] was 70.8% and 86.8%, the residual activity [14] was 84.9% and the residual activity [15] was 89.4%. It also gave a residual activity [16] of 105%, a residual activity [17] of 93.9% and a residual activity [18] of 98.5%. For the same compound, the residual activity [19] was 102%, the residual activity [20] was 99.8% and the residual activity [21] was 87.2%. The residual activity [22] was 84.6%, the residual activity [23] was 93.1% and the residual activity [24] was 90.6%. It also gave a residual activity [25] of 76.2%, a residual activity [26] of 98.6% and a residual activity [27] of 93.8%. It also gave a residual activity [28] of 94%, a residual activity [29] of 102% and a residual activity [30] of 99%. It also gave a residual activity [31] of 100%, a residual activity [32] of 92.8% and a residual activity [33] of 88%. For the same compound, the residual activity [34] was 98.2%, the residual activity [35] was 87.8% and the residual activity [36] was 94.2%. For the same compound, the residual activity [37] was 42.9%, the residual activity [38] was 93.6% and the residual activity [39] was 53.4%. For the same compound, the residual activity [40] was 89.9%, the residual activity [41] was 103% and the residual activity [42] was 101%.
